Laboratory results taken from US20260226047A1, “BENZIMIDAZOLE AND AZA-BENZIMIDAZOLE BASED IL-17A MODULATORS AND USES THEREOF” (DICE ALPHA, INC., priority 2023, published 2026).

Biological target: T1, IL-17A/A (Homo sapiens, UniProt Q16552)
T1 construct: purchased Genscript Z03228
T1 sequence (Q16552 24-155): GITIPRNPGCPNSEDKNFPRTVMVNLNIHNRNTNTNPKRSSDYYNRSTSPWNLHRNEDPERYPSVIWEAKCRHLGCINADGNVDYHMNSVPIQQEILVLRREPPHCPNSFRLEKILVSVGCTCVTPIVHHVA
Test: IL-17A/A HEK-Blue Cell Assay
Assay type: cell-based
Conditions: IL-17A/A inhibition, HEK-Blue IL-17A reporter cell line, SEAP readout at A630, incubated for 20 hours
Description: Example 3: IL-17A/A HEK-Blue Cell Assay
The HEK-Blue IL-17A reporter cell line (Fisher #NC1408637) was used for cell-based IL-17A/A inhibition assays. Cells were grown and prepared for assays according to the manufacturer's instructions. This cell line consists of HEK 293 cells that were designed to expressed IL-17RA, IL-17RC, and the ActI adapter molecule, the combination of which, when stimulated by IL-17A/A activates a NFκB promoter and drives expression of a recombinant Secreted Alkaline Phosphatase (SEAP) gene protein. Media from the cells is then added to a development reagent (Quanti-Blue Substrate, Fisher #NC9711613), and read at A630.
Compounds were titrated in DMSO, with a top final compound concentration of 10 μM, 1 uM, or 0.3 μM, and added to the cells immediately before adding IL-17A/A (Genscript #Z03228). The cells, compound, and IL-17A/A were then incubated for 20 hours before media was removed for SEAP analysis. The resulting inhibition curve was then analyzed using Graphpad Prism 7.0, and IC50 values were determined using a 4-parameter nonlinear fit. DMSO was added to a universal final concentration of 0.1% to optimize background.

Structure (SMILES) | IC50 [nM]
CCn1nccc1C(=O)N[C@H](c1nc2cc(CC3CCC(C(F)(F)F)NC3=O)cc(F)c2[nH]1)C(C1CC1)C1CC1 (some centres unmarked) [Compound 56] | 100 to 1000
CCn1nccc1C(=O)N[C@H](c1nc2cc(CC3CCNC3=O)cc(C#N)c2[nH]1)C1CCC(F)(F)CC1 (some centres unmarked) [Compound 57] | 100 to 1000
Cn1nccc1C(=O)N[C@H](c1nc2ccc(C[C@H]3CCNC3=O)cc2[nH]1)C(C1CC1)C1CC1 [Compound 59] | 100 to 1000
CCn1nccc1C(=O)N[C@H](c1nc2ccc(C[C@H]3CCNC3=O)cc2[nH]1)[C@H]1CC[C@H](C)CC1 [Compound 61] | < 100
CCn1nccc1C(=O)N[C@H](c1nc2ccc(C[C@H]3CCNC3=O)cc2[nH]1)[C@H](c1ccccc1Cl)C(C)C [Compound 62] | > 1000
CC[C@@H](c1ccc(F)cc1)[C@H](NC(=O)c1ccnn1CC)c1nc2ccc(C[C@H]3CCNC3=O)cc2[nH]1 [Compound 63] | > 1000
CC[C@@H](C1CCC1)[C@H](NC(=O)c1ccnn1CC)c1nc2ccc(C[C@H]3CCNC3=O)cc2[nH]1 [Compound 65] | 100 to 1000
CCn1nccc1C(=O)N[C@H](c1nc2ccc(C[C@H]3CCNC3=O)cc2[nH]1)[C@@H](C)[C@H]1CC[C@H](C)CC1 [Compound 66] | 100 to 1000
Cc1nonc1C(=O)N[C@H](c1nc2ccc(C[C@H]3CCNC3=O)cc2[nH]1)C1CCC(F)(F)CC1 [Compound 67] | 100 to 1000
O=C1N[C@H](C(F)(F)F)C[C@H]1Cc1ccc2nc([C@@H](NC(=O)C3(F)CC3)C(C3CC3)C3CC3)[nH]c2c1 [Compound 68] | > 1000
O=C1N[C@H](C(F)(F)F)C[C@@H]1Cc1ccc2nc([C@@H](NC(=O)C3(F)CC3)C(C3CC3)C3CC3)[nH]c2c1 [Compound 69] | 100 to 1000
CCn1nccc1C(=O)N[C@H](c1nc2ccc(CC3CC(C(F)(F)F)CNC3=O)cc2[nH]1)C(C1CC1)C1CC1 (some centres unmarked) [Compound 71] | 100 to 1000
CCn1nccc1C(=O)N[C@H](c1nc2ccc(CC3C(=O)NC4CC43)cc2[nH]1)C(C1CC1)C1CC1 (some centres unmarked) [Compound 76] | 100 to 1000
CCn1nccc1C(=O)N[C@H](c1nc2ccc(CC3C(=O)NCC3C(F)(F)F)cc2[nH]1)C(C1CC1)C1CC1 (some centres unmarked) [Compound 77] | 100 to 1000
CCn1nccc1C(=O)N[C@H](c1nc2ccc(C(COC)C3C[C@@H](C(F)(F)F)NC3=O)cc2[nH]1)C(C1CC1)C1CC1 (some centres unmarked) [Compound 78] | > 1000
CCn1nccc1C(=O)N[C@H](c1nc2ccc(C[C@H]3CCCNC3=O)cc2[nH]1)C1CCC(F)(F)CC1 [Compound 86] | > 1000
CCn1nccc1C(=O)N[C@H](c1nc2ccc(C[C@H]3CCCNC3=O)cc2[nH]1)[C@H]1CC[C@H](C)CC1 [Compound 87] | > 1000
CCn1nccc1C(=O)N[C@H](c1nc2ccc(CC3CCCNC3=O)cc2[nH]1)[C@H]1CC[C@H](C(F)(F)F)CC1 (some centres unmarked) [Compound 88] | > 1000

The remaining lines, values ahead:

IC50 [nM] | Structure (SMILES)
100 to 1000 | CC(C)n1nccc1C(=O)N[C@H](c1nc2ccc(C[C@H]3CCNC3=O)cc2[nH]1)C(C1CC1)C1CC1 [Compound 58]
100 to 1000 | CCn1nccc1C(=O)N[C@H](c1nc2ccc(C[C@H]3CCNC3=O)cc2[nH]1)C(C1CCC1)C1CCC1 [Compound 64]
100 to 1000 | CCn1nccc1C(=O)N[C@H](c1nc2ccc(CC3CCC(C)NC3=O)cc2[nH]1)C(C1CC1)C1CC1 (some centres unmarked) [Compound 70]
100 to 1000 | CCn1nccc1C(=O)N[C@H](c1nc2ccc(CC3CC(C)NC3=O)cc2[nH]1)C(C1CC1)C1CC1 (some centres unmarked) [Compound 72]
100 to 1000 | CCn1nccc1C(=O)N[C@H](c1nc2ccc(CC3CC(F)(F)CNC3=O)cc2[nH]1)C(C1CC1)C1CC1 (some centres unmarked) [Compound 73]
< 100 | CCn1nccc1C(=O)N[C@H](c1nc2ccc(C[C@H]3CC(F)(F)CNC3=O)cc2[nH]1)C(C1CC1)C1CC1 [Compound 74]
100 to 1000 | CCn1nccc1C(=O)N[C@H](c1nc2ccc(C[C@@H]3CC(F)(F)CNC3=O)cc2[nH]1)C(C1CC1)C1CC1 [Compound 75]
100 to 1000 | CCn1nccc1C(=O)N[C@H](c1nc2ccc(C(COC)C3C[C@@H](C(F)(F)F)NC3=O)cc2[nH]1)C(C1CC1)C1CC1 (some centres unmarked) [Compound 79]
100 to 1000 | CCn1nccc1C(=O)N[C@H](c1nc2ccc(C(COC)C3C[C@@H](C(F)(F)F)NC3=O)cc2[nH]1)C(C1CC1)C1CC1 (some centres unmarked) [Compound 80]
> 1000 | CCn1nccc1C(=O)N[C@H](c1nc2ccc(C(C)C3CCCNC3=O)cc2[nH]1)C(C1CC1)C1CC1 (some centres unmarked) [Compound 81]
100 to 1000 | CCn1nccc1C(=O)N[C@H](c1nc2ccc(C(C)C3CCCNC3=O)cc2[nH]1)C(C1CC1)C1CC1 (some centres unmarked) [Compound 82]
> 1000 | CCn1nccc1C(=O)N[C@H](c1nc2ccc(C(C)C3CCCNC3=O)cc2[nH]1)C(C1CC1)C1CC1 (some centres unmarked) [Compound 83]
100 to 1000 | CCn1nccc1C(=O)N[C@H](c1nc2ccc(C(C)C3CCCNC3=O)cc2[nH]1)C(C1CC1)C1CC1 (some centres unmarked) [Compound 84]
> 1000 | CCn1nccc1C(=O)N[C@H](c1nc2ccc(C(C)C3CCCNC3=O)cc2[nH]1)C(C1CC1)C1CC1 (some centres unmarked) [Compound 85]
